Results from ChEMBL document CHEMBL1149730, “Constituents of Eriobotrya japonica. A study of their antiviral properties” (J Nat Prod, 1992).
In brackets after ≈: the same amount, converted by molar mass. Activity calls are given as the source filed them. The calls are words filed in the database; no cut-off is given here.

What was measured:
[1] = biological target: Human immunodeficiency virus type 1 reverse transcriptase (Human immunodeficiency virus 1) (UniProt Q72547); experiment: Inhibition of HIV1 reverse transcriptase assessed as [3H]dTTP incorporation up to 50 ug/ml by liquid scintillation counting
[2] = tested on: Human immunodeficiency virus 1; experiment: Antiviral activity against HIV1 3B replication in human C8166 cells at 0.8 ug/ml after 5 to 7 days by MTT-formazan method; format: functional
[3] = Cytotoxicity against human HeLaS3 cells assessed as maximum non-toxic dose after 24 hrs by neutral red staining; format: cell-based, HeLa S3; details: read-out: Activity
rhinovirus A1B [4] = experiment: Antiviral activity against HRV1B replication in human Hela Ohio cells assessed as virus-induced cytopathic effect at 20 ug/ml after 24 hrs at 33 degC by light microscopy; format: functional, Human rhinovirus 1B
[5] = Cytotoxicity against human C8166 cells after 5 to 7 days by MTT-formazan method; format: cell-based; details: read-out: TC50 (the source's name)
[6] = Cytotoxicity against human HeLa Ohio cells assessed as maximum non-toxic dose after 24 hrs by neutral red staining; format: cell-based; details: read-out: Activity
[7] = tested on: Human immunodeficiency virus 1; experiment: Antiviral activity against HIV1 3B replication in human C8166 cells at 4 ug/ml after 5 to 7 days by MTT-formazan method; format: functional
Sindbis virus [8] = experiment: Antiviral activity against Sindbis virus replication in human HelaS3 cells assessed as virus-induced cytopathic effect at 20 ug/ml after 24 hrs at 37 degC by light microscopy; format: functional
[9] = tested on: Human immunodeficiency virus 1; experiment: Antiviral activity against HIV1 3B replication in human C8166 cells at 20 ug/ml after 5 to 7 days by MTT-formazan method; format: functional
[10] = tested on: Human immunodeficiency virus 1; experiment: Antiviral activity against HIV1 3B replication in human C8166 cells at 100 ug/ml after 5 to 7 days by MTT-formazan method; format: functional
rhinovirus A1B [11] = experiment: Antiviral activity against HRV1B replication in human Hela Ohio cells assessed as virus-induced cytopathic effect at 50 ug/ml after 24 hrs at 33 degC by light microscopy; format: functional, Human rhinovirus 1B
[12] = tested on: Human immunodeficiency virus 1; experiment: Antiviral activity against HIV1 3B replication in human C8166 cells at 100 uM after 5 to 7 days by MTT-formazan method; format: functional
[13] = tested on: Human immunodeficiency virus 1; experiment: Antiviral activity against HIV1 3B replication in human C8166 cells at 0.016 ug/ml after 5 to 7 days by MTT-formazan method; format: functional
[14] = tested on: Human immunodeficiency virus 1; experiment: Antiviral activity against HIV1 3B replication in human C8166 cells at 8 ug/ml after 5 to 7 days by MTT-formazan method; format: functional
[15] = tested on: Human immunodeficiency virus 1; experiment: Antiviral activity against HIV1 3B replication in human C8166 cells at 40 ug/ml after 5 to 7 days by MTT-formazan method; format: functional
rhinovirus A1B [16] = experiment: Antiviral activity against HRV1B replication in human Hela Ohio cells assessed as inhibition of virus-induced cytopathic effect at 0.8 ug/ml after 24 hrs at 33 degC by light microscopy; format: functional, organism-based; details: Human rhinovirus 1B
rhinovirus A1B [17] = experiment: Antiviral activity against HRV1B replication in human Hela Ohio cells assessed as inhibition of virus-induced cytopathic effect at 4 ug/ml after 24 hrs at 33 degC by light microscopy; format: functional, Human rhinovirus 1B; details: Rhinovirus A
Sindbis virus [18] = experiment: Antiviral activity against Sindbis virus replication in human HelaS3 cells assessed as virus-induced cytopathic effect at 4 ug/ml after 24 hrs at 37 degC by light microscopy; format: functional
Sindbis virus [19] = experiment: Antiviral activity against Sindbis virus replication in human HelaS3 cells assessed as virus-induced cytopathic effect at 50 ug/ml after 24 hrs at 37 degC by light microscopy; format: functional

C[C@@H]1CC[C@]2(C(=O)O)CC[C@]3(C)C(=CC[C@@H]4[C@@]5(C)CC[C@H](O)C(C)(C)[C@@H]5[C@H](O)C[C@]43C)[C@@H]2[C@]1(C)O
Activity [1]: inactive
Activity [2]: 1%
MNTC at 24 h [3]: 20 µg/mL
Activity (rhinovirus A1B [4]): 100%
CC50 [5]: 2 µg/mL (≈ 4.09 µM)
MNTC at 24 h [6]: 20 µg/mL
Activity [7]: 0%
Activity (Sindbis virus [8]): 100%

C[C@@H]1CC[C@]2(C(=O)O)CC[C@]3(C)C(=CC[C@@H]4[C@@]5(C)C[C@@H](O)[C@H](O)[C@@](C)(COC(=O)/C=C\c6ccc(O)cc6)[C@@H]5CC[C@]43C)[C@@H]2[C@]1(C)O
Activity [1]: inactive
Activity [9]: 0%
MNTC at 24 h [3]: 20 µg/mL
Activity [10]: 0%
Activity (rhinovirus A1B [4]): 100%
CC50 [5]: 50 µg/mL (≈ 76.8 µM)
MNTC at 24 h [6]: 20 µg/mL
Activity (Sindbis virus [8]): 100%

C[C@@H]1CC[C@]2(C(=O)O)CC[C@]3(C)C(=CC[C@@H]4[C@@]5(C)C[C@@H](O)[C@H](O)[C@@](C)(COC(=O)/C=C/c6ccc(O)cc6)[C@@H]5CC[C@]43C)[C@@H]2[C@]1(C)O
Activity [1]: inactive
Activity [9]: 0%
MNTC at 24 h [3]: 20 µg/mL
Activity [10]: 0%
CC50 [5]: 30 µg/mL (≈ 46.1 µM)
MNTC at 24 h [6]: 50 µg/mL
Activity (rhinovirus A1B [11]): 100%
Activity (Sindbis virus [8]): 100%

C[C@@H]1CC[C@]2(C(=O)O)CC[C@]3(C)C(=CC[C@@H]4[C@@]5(C)CC[C@H](OC(=O)/C=C/c6ccc(O)cc6)[C@@](C)(CO)[C@@H]5CC[C@]43C)[C@@H]2[C@]1(C)O
Activity [1]: inactive
Activity [9]: 0%
MNTC at 24 h [3]: 20 µg/mL
Activity [10]: 0%
Activity (rhinovirus A1B [4]): 100%
CC50 [5]: 30 µg/mL (≈ 47.3 µM)
MNTC at 24 h [6]: 20 µg/mL
Activity (Sindbis virus [8]): 100%

Cc1cn([C@H]2C[C@H](N=[N+]=[N-])[C@@H](CO)O2)c(=O)[nH]c1=O [ZIDOVUDINE]
Activity [12]: 100%
CC50 [5]: > 1000 µg/mL
Activity [13]: 49%

C[C@@H]1CC[C@]2(C(=O)O)CC[C@]3(C)C(=CC[C@@H]4[C@@]5(C)C[C@@H](O)[C@@H](O)C(C)(C)[C@@H]5CC[C@]43C)[C@@H]2[C@]1(C)O [EUSCAPHIC ACID]
Activity [1]: inactive
Activity [14]: 1%
MNTC at 24 h [3]: 20 µg/mL
CC50 [5]: 20 µg/mL (≈ 40.9 µM)
MNTC at 24 h [6]: 50 µg/mL
Activity (rhinovirus A1B [11]): 100%
Activity [15]: 0%
Activity (Sindbis virus [8]): 100%

C[C@@H]1CC[C@]2(C(=O)O)CC[C@]3(C)C(=CC[C@@H]4[C@@]5(C)C[C@@H](O)[C@H](OC(=O)/C=C/c6ccc(O)c(O)c6)C(C)(C)[C@@H]5CC[C@]43C)[C@@H]2[C@]1(C)O
Activity [1]: inactive
MNTC at 24 h [3]: 4 µg/mL
Activity (rhinovirus A1B [4]): 50%
Activity (rhinovirus A1B [16]): inactive
inhibition at 4 µg/mL (rhinovirus A1B [17]): < 25%
CC50 [5]: 10 µg/mL (≈ 15.4 µM)
MNTC at 24 h [6]: 20 µg/mL
Activity (Sindbis virus [18]): 100%
Activity [7]: 1%

C[C@@H]1CC[C@]2(C(=O)O)CC[C@]3(C)C(=CC[C@@H]4[C@@]5(C)C[C@@H](O)[C@H](O)[C@@](C)(CO)[C@@H]5CC[C@]43C)[C@@H]2[C@]1(C)O
Activity [1]: inactive
Activity (Sindbis virus [19]): 100%
Activity [14]: 1%
MNTC at 24 h [3]: 50 µg/mL
CC50 [5]: 20 µg/mL (≈ 39.6 µM)
MNTC at 24 h [6]: 50 µg/mL
Activity (rhinovirus A1B [11]): 100%
Activity [15]: 0%
